Bounds are passed on as bounds.

For twelve compounds, IC50 results are on record in patent publication US20230151003A1, “COMPOUNDS AND METHODS OF USE” (Exelixis, Inc., priority 2020, published 2023).

Sequence of KDR (P35968 20-1356): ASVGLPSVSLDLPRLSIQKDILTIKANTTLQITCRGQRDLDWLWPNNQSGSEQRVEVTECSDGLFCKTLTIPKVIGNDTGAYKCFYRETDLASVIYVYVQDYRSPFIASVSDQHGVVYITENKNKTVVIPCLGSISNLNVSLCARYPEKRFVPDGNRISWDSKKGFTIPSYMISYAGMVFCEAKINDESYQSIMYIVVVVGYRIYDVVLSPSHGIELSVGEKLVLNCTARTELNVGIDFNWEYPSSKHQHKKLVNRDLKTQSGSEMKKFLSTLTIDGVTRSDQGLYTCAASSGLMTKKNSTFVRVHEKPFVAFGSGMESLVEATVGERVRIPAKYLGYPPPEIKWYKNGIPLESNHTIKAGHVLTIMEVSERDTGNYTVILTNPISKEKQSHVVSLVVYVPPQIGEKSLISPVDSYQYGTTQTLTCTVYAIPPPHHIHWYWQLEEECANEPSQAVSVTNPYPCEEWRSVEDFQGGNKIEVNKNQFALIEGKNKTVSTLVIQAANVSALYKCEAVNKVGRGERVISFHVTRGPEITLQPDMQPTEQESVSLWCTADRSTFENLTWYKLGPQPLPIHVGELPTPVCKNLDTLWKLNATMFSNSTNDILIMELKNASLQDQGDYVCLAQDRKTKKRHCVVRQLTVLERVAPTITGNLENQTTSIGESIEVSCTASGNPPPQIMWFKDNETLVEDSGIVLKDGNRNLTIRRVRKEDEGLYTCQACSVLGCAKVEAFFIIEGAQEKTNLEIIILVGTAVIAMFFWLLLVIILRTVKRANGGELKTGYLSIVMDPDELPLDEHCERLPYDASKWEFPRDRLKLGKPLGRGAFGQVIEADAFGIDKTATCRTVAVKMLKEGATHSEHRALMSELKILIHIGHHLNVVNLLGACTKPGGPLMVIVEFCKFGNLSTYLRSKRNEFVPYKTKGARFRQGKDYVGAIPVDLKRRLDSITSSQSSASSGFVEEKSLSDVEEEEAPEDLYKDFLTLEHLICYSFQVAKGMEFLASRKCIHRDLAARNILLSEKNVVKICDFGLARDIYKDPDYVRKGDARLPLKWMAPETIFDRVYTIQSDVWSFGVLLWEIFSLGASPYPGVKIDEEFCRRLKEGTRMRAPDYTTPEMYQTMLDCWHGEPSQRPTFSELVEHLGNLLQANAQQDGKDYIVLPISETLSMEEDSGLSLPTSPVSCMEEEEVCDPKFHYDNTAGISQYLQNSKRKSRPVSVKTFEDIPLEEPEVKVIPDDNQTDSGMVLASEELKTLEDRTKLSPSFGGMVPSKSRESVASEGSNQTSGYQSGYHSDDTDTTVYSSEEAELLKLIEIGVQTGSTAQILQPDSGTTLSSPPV

For this experiment, the target named is KDR (Homo sapiens, UniProt P35968). As to the kind of experiment: KDR autophosphorylation ELISA in HUVEC cells. In kind it is cell-based. The arrangement: endogenous in cells; host or cells: HUVEC (Lonza #C2519A). Conditions: Table 3 Cellular Activities, VEGF165-stimulated, phospho-KDR ELISA. The essentials:
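HUVEC, 24 h serum-free starvation; cpd 8-pt dilution, 0.3% DMSO final, 1 h; VEGF165 100 ng/mL, 5 min; cold lysis; phospho-KDR ELISA; IC50, 4PL.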
Usually IC50 stands for the concentration at which inhibition is half-maximal. With `COc1cc2nccc(Oc3ccc(NC(=O)c4cnc(C)c(-c5sccc5C)c4O)cc3F)c2nc1OC` [Compound 103, N-[4-[(6,7-Dimethoxy-1,5-naphthyridin-4-yl)oxy]-3-fluoro-phenyl]-4-hydroxy-6-methyl-5-(3-methyl-2-thienyl) pyridine-3-carboxamide], the IC50 was not above 0.1 µM.

Regarding `COc1cc2nccc(Oc3ccc(NC(=O)c4c(C)nc(C)c(-c5ccc(C)o5)c4O)cc3F)c2nc1OC` [Compound 110, N-[4-[(6,7-Dimethoxy-1,5-naphthyridin-4-yl)oxy]-3-fluoro-phenyl]-4-hydroxy-2,6-dimethyl-5-(5-methyl-2-furyl)pyridine-3-carboxamide], the IC50 was not above 0.1 µM.

With `COc1cc2nccc(Oc3ccc(NC(=O)c4cn(CCF)c(C)c(-c5ccsc5)c4=O)cc3F)c2nc1OC` [Compound 332, N-[4-[(6,7-Dimethoxy-1,5-naphthyridin-4-yl)oxy]-3-fluorophenyl]-1-(2-fluoroethyl)-6-methyl-4-oxo-5-thiophen-3-ylpyridine-3-carboxamide], the IC50 is not above 0.1 µM.

`COc1cc2nccc(Oc3ccc(NC(=O)c4cnc(C)c(-c5ccc(C(C)C)o5)c4O)cc3F)c2nc1OC` [Compound 154, N-[4-[(6,7-Dimethoxy-1,5-naphthyridin-4-yl)oxy]-3-fluorophenyl]-4-hydroxy-6-methyl-5-(5-propan-2-ylfuran-2-yl)pyridine-3-carboxamide]: the IC50 was not above 0.1 µM.

`COc1cc2nccc(Oc3ccc(NC(=O)c4c(C)nc(C)c(-c5cccs5)c4O)cc3F)c2nc1OC` [Compound 107] came in with an IC50 not above 0.1 µM.

Take `COc1cc2nccc(Oc3ccc(NC(=O)c4c(C)nc(C)c(-c5ccsc5)c4O)cc3F)c2nc1OC` [Compound 106]: the 50% inhibitory concentration (IC50) was not above 0.1 µM.

The compound `COc1cc2nccc(Oc3ccc(NC(=O)c4c(C)ncc(-c5ccco5)c4O)cc3F)c2nc1OC` [Compound 119, N-[4-[(6,7-Dimethoxy-1,5-naphthyridin-4-yl)oxy]-3-fluorophenyl]-5-(furan-2-yl)-4-hydroxy-2-methylpyridine-3-carboxamide] showed an IC50 not above 0.1 µM.

Take `COc1cnc2c(Oc3ccc(NC(=O)c4cnc(C)c(-c5cc(C)cs5)c4O)cc3F)ccnc2c1` [Compound 102, N-[3-Fluoro-4-[(7-methoxy-1,5-naphthyridin-4-yl)oxy]phenyl]-4-hydroxy-6-methyl-5-(4-methyl-2-thienyl) pyridine-3-carboxamide]: the IC50 is not above 0.1 µM.

Regarding `COc1cnc2c(Oc3ccc(NC(=O)c4cn(CCF)c(C)c(-c5ccoc5)c4=O)cc3F)ccnc2c1` [Compound 334, 1-(2-Fluoroethyl)-N-[3-fluoro-4-[(7-methoxy-1,5-naphthyridin-4-yl)oxy]phenyl]-5-(furan-3-yl)-6-methyl-4-oxopyridine-3-carboxamide], the half-inhibitory concentration (IC50) is 0.3 to 1 µM.

Compound `COc1cnc2c(Oc3ccc(NC(=O)c4cnc(C)c(-c5ccco5)c4O)cc3)ccnc2c1` [Compound 129, 5-(Furan-2-yl)-4-hydroxy-N-[4-[(7-methoxy-1,5-naphthyridin-4-yl)oxy]phenyl]-6-methylpyridine-3-carboxamide] registered a half-inhibitory concentration (IC50) not above 0.1 µM.

`COc1cc2nccc(Oc3ccc(NC(=O)c4c(C)nc(C)c(-c5ccnn5C)c4O)cc3F)c2nc1OC` [Compound 108, N-[4-[(6,7-Dimethoxy-1,5-naphthyridin-4-yl)oxy]-3-fluoro-phenyl]-4-hydroxy-2,6-dimethyl-5-(2-methylpyrazol-3-yl) pyridine-3-carboxamide] yielded an IC50 not above 0.1 µM.

Compound `COc1cc2nccc(Oc3ccc(NC(=O)c4cnc(C)c(-c5ccco5)c4O)cc3F)c2nc1OC` [Compound 89, N-[4-[(6,7-Dimethoxy-1,5-naphthyridin-4-yl)oxy]-3-fluorophenyl]-5-(furan-2-yl)-4-hydroxy-6-methylpyridine-3-carboxamide] came in with an IC50 not above 0.1 µM.
